{"source": "paper PMC12086361", "about": "“Downstream Signaling of Muscarinic M4 Receptors Is Regulated by Receptor Density and Cellular Environment” (Pharmacology Research & Perspectives, 2025)", "data": [{"biological_target": "T1, human M4 receptor (hM4) (Homo sapiens, UniProt P08173)", "T1 construct": "gene CHRM4", "T1 sequence (P08173 1-479)": "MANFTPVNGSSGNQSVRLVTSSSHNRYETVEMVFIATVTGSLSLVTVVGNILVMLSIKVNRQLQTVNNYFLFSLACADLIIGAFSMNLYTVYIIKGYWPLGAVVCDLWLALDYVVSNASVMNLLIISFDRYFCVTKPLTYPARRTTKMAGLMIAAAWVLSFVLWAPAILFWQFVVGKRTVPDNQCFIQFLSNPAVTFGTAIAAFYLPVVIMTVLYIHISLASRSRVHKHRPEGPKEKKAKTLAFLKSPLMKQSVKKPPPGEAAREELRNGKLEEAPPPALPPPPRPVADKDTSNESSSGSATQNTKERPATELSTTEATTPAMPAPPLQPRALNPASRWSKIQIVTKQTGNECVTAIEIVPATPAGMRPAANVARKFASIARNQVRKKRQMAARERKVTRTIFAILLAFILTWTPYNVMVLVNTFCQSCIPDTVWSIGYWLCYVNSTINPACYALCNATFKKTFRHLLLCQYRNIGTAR", "assay": "cADDis cAMP sensor FLIPR assay, HEK293 hM4, decrease of forskolin-stimulated cAMP", "type": "cell-based", "details": "read-out: HEK-293, hM4, cAMP (48 h) / Gi pEC50 /slope (converted)", "source_text": "cADDis cAMP sensor FLIPR assay, HEK293 hM4, decrease of forskolin-stimulated cAMP on human M4 receptor (hM4)", "units": {"EC50": "nM"}, "values": [{"molecule": "C[N+](C)(C)CC#CCN1CCCC1=O", "note": "[oxotremorine-M]", "EC50": 1.2}, {"molecule": "COC(=O)N1CCC(N2CCC(n3c(=O)n(C)c4ccccc43)CC2)CC1", "note": "[compound 110, compound-110]", "EC50": 0.646}, {"molecule": "CCOC(=O)N1CC2(CCC(N3CCC(N(CC)C(C)=O)CC3)C2)C1", "note": "(stereo not drawn) [compound 6, compound-6]", "EC50": 0.407}]}]}
